Laboratory results from paper PMC6270001, “Synthesis and Antiviral Activity of N-Phenylbenzamide Derivatives, a Novel Class of Enterovirus 71 Inhibitors” (Molecules, 2013).

Key:
[1] = tested on: Vero cells; experiment: Cytotoxicity determination in Vero cells monitored by cytopathic effect (CPE); format: cell-based; conditions: 48 h, Reed & Muench, concentration that inhibits 50% cellular growth, average ± SD, n=3
Experimental: Vero cells were purchased from the American Type Culture Collection and cultured in Minimum Essential Medium (MEM) supplemented with 10% Fetal Bovine Serum (FBS) and antibiotics (100 U/mL penicillin G, 100 μg/mL streptomycin). Enterovirus 71 (EV 71) strain SZ-98 was kindly provided by Dr. Qi Jin, Institute of Pathogen Biology, Chinese Academy of Medical Science and Peking Union Medical School. […] Enterovirus 71 (EV 71) strain JS-52-3 was kindly provided by Dr. Xiang-zhong Ye, Beijing Wantai Biological Pharmacy Enterprise Co., Ltd. All Enterovirus 71 strains were propagated in Vero cells.
(§1) All compounds were dissolved in DMSO at 20 mg/mL as a stock solution and further diluted in culture medium prior to use. The initial concentration in all cytotoxicity assay was 200 µg/mL, and inhibition assay for anti-EV71 experiments was from maximum non-toxic concentration, and proceeded serially 3-fold dilution with culture medium. All cytotoxicity and activity assay for each compound was repeated for three times, and the data was indicated as average ± SD.
The cytotoxicity of compounds in the presence of Vero cells was monitored by cytopathic effect (CPE). Vero cells (2.5 × 10^4/well) were plated into a 96-well plate. A total of 24 h later, the monolayer cells were incubated in the presence of various concentrations of test compounds. […] The median toxic concentration (TC50) was calculated by Reed & Muench analyses.

[2] = tested on: EV 71 strain SZ-98 (genotype C4); experiment: Anti EV 71 activity assay (CPE, Reed & Muench) in Vero cells, strain SZ-98; format: cell-based, Enterovirus 71; conditions: for IC50: EV 71 strain SZ-98, Vero cells, 100 TCID50, CPE, average ± SD, n=3; for SI SZ-98: selectivity index TC50/IC50, strain SZ-98, "-" stands for no antiviral selectivity
Experimental: (§2) The EV 71 was divided into three genotypes A, B and C based on nucleotide sequence comparisons, and genotypes B and C were subdivided into B1-B5 and C1-C5 [6, 10]. Genotype C is the most common genotype found in mainland China, especially the C4 subgenotype. Consequently, the intermediate compounds 1a, 1c and 1e, and the final products 2a–c, 3a–g, and 5a–f were evaluated for their anti-EV 71 activity in Vero cells against genotypes C4 (strains SZ-98 and JS-52-3), C2 (strain H) and A (strain BrCr). […] The IC50 values were calculated by the Reed and Muench method, and the cytotoxicity was monitored by the CPE method.
(§3) Vero cells were purchased from the American Type Culture Collection and cultured in Minimum Essential Medium (MEM) supplemented with 10% Fetal Bovine Serum (FBS) and antibiotics (100 U/mL penicillin G, 100 μg/mL streptomycin). Enterovirus 71 (EV 71) strain SZ-98 was kindly provided by Dr. Qi Jin, Institute of Pathogen Biology, Chinese Academy of Medical Science and Peking Union Medical School. Enterovirus 71 (EV 71) strain BrCr (VR-1775) was purchased from the American Type Culture Collection. Enterovirus 71 (EV 71) strain JS-52-3 was kindly provided by Dr. Xiang-zhong Ye, Beijing Wantai Biological Pharmacy Enterprise Co., Ltd. All Enterovirus 71 strains were propagated in Vero cells.
as §1
(§4) Confluent Vero cells grown in 96-well microplates were infected respectively with 100 median tissue culture infective dose (TCID50) EV 71. After 1 h adsorption at 37 °C, the monolayers were washed by PBS and incubated at 37 °C in the maintenance medium with or without different concentrations of test compounds.

[3] = tested on: EV 71 strain JS-52-3 (genotype C4); experiment: Anti EV 71 activity assay (CPE, Reed & Muench) in Vero cells, strain JS-52-3; format: cell-based, Enterovirus 71; conditions: for IC50: EV 71 strain JS-52-3, Vero cells, 100 TCID50, CPE, average ± SD, n=3; for SI JS-52-3: selectivity index TC50/IC50, strain JS-52-3, "-" stands for no antiviral selectivity
Experimental: as §2, §3, §1, §4

[4] = tested on: EV 71 strain H (genotype C2); experiment: Anti EV 71 activity assay (CPE, Reed & Muench) in Vero cells, strain H; format: cell-based, Enterovirus 71; conditions: for IC50: EV 71 strain H (C2 genotype), Vero cells, 100 TCID50, CPE, average ± SD, n=3; for SI H: selectivity index TC50/IC50, strain H, "-" stands for no antiviral selectivity
Experimental: as §2, §3, §1, §4

[5] = tested on: EV 71 strain BrCr (genotype A); experiment: Anti EV 71 activity assay (CPE, Reed & Muench) in Vero cells, strain BrCr; format: cell-based, Enterovirus 71; conditions: for IC50: EV 71 strain BrCr, Vero cells, 100 TCID50, CPE, average ± SD, n=3; for SI BrCr: selectivity index TC50/IC50, strain BrCr, "-" stands for no antiviral selectivity
Experimental: as §2, §3, §1, §4

[6] = tested on: EV 71 strains SZ-98, JS-52-3, H, BrCr; experiment: Anti EV 71 activity assay in Vero cells, summary over the four strains tested; format: cell-based, Enterovirus 71; conditions: for selectivity index (SI) values (range over strains): TC50/IC50, range over the EV 71 strains tested
Experimental: as §2, §3, §1, §4

SMILES | TC50 [1] | IC50 ([2]; Enterovirus A, Vero) | SI SZ-98 [2] | IC50 ([3]; Enterovirus A, Vero) | IC50 ([4]; Enterovirus A, Vero) | SI H [4] | IC50 ([5]; Enterovirus A, Vero) | SI BrCr [5] | melting point | SI JS-52-3 [3] | IC50 [4] | IC50 [2] | IC50 [3] | selectivity index (SI) values (range over strains) [6] | anti-EV 71 activity (in words) ([6]; structure-activity discussion) | IC50 [5]
COc1cc(C(=O)Nc2ccccc2)ccc1NC(=O)C(C)F (centres unmarked) [Compound 2c, 4-(2-Fluoropropanamido)-3-methoxy-N-phenylbenzamide] | >630 µM | 110 ± 12 µM | >5.8 | 34 ± 2.8 µM | 41 ± 2.9 µM | >16 | 90 ± 9.5 µM | >7.0 | 142 to 143 °C |  |  |  |  |  |  | 
CCCNc1cc(C(=O)Nc2ccccc2)ccc1OC [Compound 3e, 4-Methoxy-N-phenyl-3-(propylamino)benzamide] | 410 ± 22 µM | > 78 µM |  | 34 ± 4.6 µM | ~15 µM | 20 | 45 µM | 9.0 | 121 to 123 °C | 12 | 20 ± 1.2 µM |  |  |  |  | 
CCC(=O)Nc1cc(C(=O)Nc2ccc(Br)cc2)ccc1OC [Compound 5c] | 530 ± 0.0 µM | ~15 µM | 47 | ~15 µM | ~15 µM | 63 | 34 µM | 16 |  | 27 | 8.4 ± 1.2 µM | 11 ± 0.8 µM | 20 ± 3.1 µM | 16–63 |  | 
CCCNc1cc(C(=O)Nc2ccc(Cl)cc2)ccc1OC [Compound 3f, N-(4-Chlorophenyl)-4-methoxy-3-propylaminobenzamide] | 120 µM | > 70 µM |  | > 70 µM | > 70 µM |  | > 70 µM |  | 168 to 171 °C |  |  |  |  |  |  | 
COc1ccc(C(=O)NC2CCCCC2)cc1NC(=O)C(C)F (centres unmarked) [Compound 2b, N-Cyclohexyl-3-(2-fluoropropanamido)-4-methoxybenzamide] | >620 µM | > 620 µM |  | 210 µM | 430 ± 36 µM | >1.4 | 360 ± 26 µM | >1.7 | 192 to 194 °C | >3.0 |  |  |  |  | no anti-EV 71 activity was observed | 
COc1ccc(C(=O)Nc2ccccc2)cc1NC(=O)C(C)F (centres unmarked) [Compound 2a] |  | > 630 µM |  | 160 ± 5.7 µM | 18 ± 1.2 µM | >35 | > 630 µM |  |  | >3.9 |  |  |  |  |  | 
CCC(=O)Nc1cc(C(=O)Nc2ccc(Cl)cc2)ccc1OC [Compound 5b, N-(4-Chlorophenyl)-4-methoxy-3-propionamidobenzamide] | >600 µM | 38 ± 2.9 µM | > 16 | 39 ± 1.9 µM | 22 ± 2.9 µM | >27 | > 67 µM |  | 130 to 132 °C | >16 |  |  |  |  |  | 
CCC(=O)Oc1cc(C(=O)N(C)c2ccc(Cl)cc2)ccc1OC [Compound 5d, N-(4-Chlorophenyl)-N-methyl-4-methoxy-3-propionyloxybenzamide] | 280 ± 21 µM | 190 ± 12 µM | 1.4 | 44 ± 3.7 µM | 65 µM | 4.3 | 53 ± 2.4 µM | 5.2 | 139 to 141 °C | 6.2 |  |  |  |  |  | 
CCCNc1cc(C(=O)Nc2cc(OC)c(OC)c(OC)c2)ccc1OC [Compound 3g, 4-Methoxy-3-(propylamino)-N-(3,4,5-trimethoxyphenyl)benzamide] | 530 µM | > 59 µM |  | 34 ± 2.5 µM | ~15 µM | 35 | ~15 µM | 27 | 164 to 167 °C | 16 |  |  |  | 16–35 |  | 20 ± 3.1 µM
CCC(=O)Nc1cc(C(=O)Nc2ccccc2)ccc1OC [Compound 5a] | >670 µM | > 75 µM |  | 58 ± 4.9 µM | 96 ± 10 µM | >7.0 | 45 ± 10 µM |  |  | >12 |  |  |  |  |  | 
COc1ccc(C(=O)Nc2cc(OC)c(OC)c(OC)c2)cc1N(C)C [Compound 3d, 3-Dimethylamino-4-methoxy-N-(3,4,5-trimethoxyphenyl)benzamide] | >560 µM | 320 ± 32 µM | >1.7 | > 560 µM | 190 µM | >3.0 | 190 µM | >3.0 | 120 to 122 °C |  |  |  |  |  |  | 
COc1ccc(C(=O)Nc2ccc(Cl)cc2)cc1OC(C)=O [Compound 5e, N-(4-Chlorophenyl)-4-methoxy-3-acetoxybenzamide] | 470 ± 22 µM | ~15 µM | 37 | 32 ± 3.6 µM | 22 ± 4.7 µM | 21 | 32 ± 3.9 µM | 15 | 177 to 179 °C | 14 |  | 13 ± 2.4 µM |  |  |  | 
COc1ccc(C(=O)Nc2ccc(Cl)cc2)cc1N(C)C [Compound 3b, N-(4-Chlorophenyl)-3-dimethylamino-4-methoxybenzamide] | 510 ± 38 µM | 73 ± 8.6 µM | 7.0 | 42 ± 3.1 µM | 31 ± 4.3 µM | 16 | 50 ± 3.8 µM | 10 | 160 to 162 °C | 12 |  |  |  |  |  | 
CNc1cc(C(=O)Nc2ccccc2)ccc1OC [Compound 3a, 4-Methoxy-3-methylamino-N-phenylbenzamide] | 780 ± 0.0 µM | > 260 µM |  | 260 µM | 260 µM | 3.0 | 180 ± 14 µM | 4.3 | 170 to 172 °C | 3.0 |  |  |  |  |  | 
COc1ccc(C(=O)Nc2ccccc2)cc1OC(C)=O [Compound 5f, 4-Methoxy-N-phenyl-3-acetoxybenzamide] | 360 ± 39 µM | 90 ± 11 µM | 4.0 | 98 ± 4.7 µM | 47 ± 6.1 µM | 7.6 | 95 ± 9 µM | 3.8 | 153 to 155 °C | 3.7 |  |  |  |  |  | 
CNc1cc(C(=O)Nc2cc(OC)c(OC)c(OC)c2)ccc1OC [Compound 3c, 4-Methoxy-3-methylamino-N-(3,4,5-trimethoxyphenyl)benzamide] | 280 ± 5.9 µM | 64 µM | 4.3 | 37 ± 1.9 µM | 37 ± 1.2 µM | 7.5 | 44 ± 1 µM | 6.2 | 147 to 148 °C | 7.5 |  |  |  |  |  | 
COc1ccc(C(=O)Nc2ccccc2)cc1N [Compound 1a] | >820 µM | 350 ± 24 µM |  | 160 ± 7.9 µM | 190 ± 14 µM | 4.3 | 160 ± 12 µM | 5.2 |  | 5.2 |  |  |  |  |  | 
